Source: ChEMBL document CHEMBL5038581, “Design, synthesis, and biological evaluation of novel dual inhibitors targeting lysine specific demethylase 1 (LSD1) and histone deacetylases (HDAC) for treatment of gastric cancer” (Eur J Med Chem, 2021)

Key:
CYP2D6 = CYP2D6 (Homo sapiens, UniProt P10635); test: Inhibition of CYP2D6 (unknown origin) at 10 uM using dextromethorphan as substrate relative to control; format: ADME; conditions: probe dextromethorphan
[1] = Metabolic stability in rat liver microsomes assessed as intrinsic clearance in presence of NADPH at 1 uM by LC-MS/MS analysis; format: ADME, Microsome; conditions: read-out: CLH
MGC-803 [2] = test: Induction of apoptosis in human MGC-803 cells assessed as apoptotic cells at 2.5 uM incubated for 48 hrs by annexin V-FITC and PI staining based flowcytometry analysis (Rvb =4.9 %); format: functional
Histone deacetylase 11 = Histone deacetylase 11 (Homo sapiens, UniProt Q96DB2); test: Inhibition of HDAC11 (unknown origin) using Ac-peptide as substrate preincubated for 15 mins followed by substrate addition by fluorescence based microplate reader analysis
[3] = Metabolic stability in rat liver microsomes assessed as half life in presence of NADPH at 1 uM by LC-MS/MS analysis; format: ADME, Microsome
MGC-803 [4] = test: Induction of apoptosis in human MGC-803 cells assessed as increase in Bax protein expression at 1.25 to 7.5 uM incubated for 48 hrs by western blot analysis; format: functional, cell-based; conditions: dose 1.25-7.5 µM
[5] = Metabolic stability in human liver microsomes assessed as intrinsic clearance in presence of NADPH at 1 uM by LC-MS/MS analysis; format: ADME, Microsome; conditions: read-out: CLH
[6] = molecular target: T1, Protein deacetylase HDAC6 (Homo sapiens, UniProt Q9UBN7); test: Inhibition of HDAC6 (unknown origin) using Ac-peptide as substrate preincubated for 15 mins followed by substrate addition by fluorescence assay
T1 sequence (Q9UBN7 whole entry): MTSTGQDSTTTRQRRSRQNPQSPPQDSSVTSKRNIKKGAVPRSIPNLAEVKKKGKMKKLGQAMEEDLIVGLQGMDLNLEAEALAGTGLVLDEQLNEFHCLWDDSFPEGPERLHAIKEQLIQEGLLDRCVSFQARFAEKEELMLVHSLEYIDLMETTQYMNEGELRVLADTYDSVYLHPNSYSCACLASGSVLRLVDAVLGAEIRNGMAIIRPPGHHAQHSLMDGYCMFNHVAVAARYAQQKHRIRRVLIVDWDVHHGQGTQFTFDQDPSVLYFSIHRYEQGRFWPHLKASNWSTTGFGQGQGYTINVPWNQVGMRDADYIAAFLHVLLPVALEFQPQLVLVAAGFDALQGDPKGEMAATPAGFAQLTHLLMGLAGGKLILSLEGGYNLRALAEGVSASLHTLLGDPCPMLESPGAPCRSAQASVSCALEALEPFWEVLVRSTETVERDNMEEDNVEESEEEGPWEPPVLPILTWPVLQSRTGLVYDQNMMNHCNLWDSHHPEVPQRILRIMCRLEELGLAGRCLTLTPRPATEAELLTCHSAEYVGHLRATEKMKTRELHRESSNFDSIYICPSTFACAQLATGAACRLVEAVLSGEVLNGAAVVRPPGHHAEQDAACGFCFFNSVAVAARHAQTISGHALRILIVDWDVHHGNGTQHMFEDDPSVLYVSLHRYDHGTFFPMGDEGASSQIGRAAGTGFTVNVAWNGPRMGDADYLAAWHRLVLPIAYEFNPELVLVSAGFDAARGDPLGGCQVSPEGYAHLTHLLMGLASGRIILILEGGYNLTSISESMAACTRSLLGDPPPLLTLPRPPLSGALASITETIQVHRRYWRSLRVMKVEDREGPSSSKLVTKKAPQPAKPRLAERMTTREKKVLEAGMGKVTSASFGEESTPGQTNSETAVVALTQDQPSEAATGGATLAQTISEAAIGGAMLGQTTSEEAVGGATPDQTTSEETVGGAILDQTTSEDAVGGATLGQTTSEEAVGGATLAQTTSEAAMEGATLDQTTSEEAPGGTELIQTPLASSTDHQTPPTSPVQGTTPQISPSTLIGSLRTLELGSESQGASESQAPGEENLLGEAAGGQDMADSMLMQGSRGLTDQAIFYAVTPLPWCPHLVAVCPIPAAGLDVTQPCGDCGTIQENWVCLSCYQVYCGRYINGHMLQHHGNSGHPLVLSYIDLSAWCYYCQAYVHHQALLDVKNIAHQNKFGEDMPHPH

Histone deacetylase 5 = Histone deacetylase 5 (Homo sapiens, UniProt Q9UQL6); test: Inhibition of HDAC5 (unknown origin) using Ac-peptide as substrate preincubated for 15 mins followed by substrate addition by fluorescence assay
MGC-803 [7] = test: cells; conditions: Homo sapiens, MGC-803, 72 h
Histone deacetylase 1 = Histone deacetylase 1 (Homo sapiens, UniProt Q13547); test: Inhibition of HDAC1 (unknown origin) using Ac-peptide as substrate preincubated for 15 mins followed by substrate addition by fluorescence assay
CYP2C9 = CYP2C9 (Homo sapiens, UniProt P11712); test: Inhibition of CYP2C9 (unknown origin) at 10 uM using diclofenac as substrate relative to control; format: ADME; conditions: probe diclofenac
HCT-116 = test: cells; conditions: Homo sapiens, HCT-116, 72 h
MGC-803 [8] = test: Induction of apoptosis in human MGC-803 cells assessed as decrease in Bcl2 protein expression at 1.25 to 7.5 uM incubated for 48 hrs by western blot analysis; format: functional, cell-based; conditions: dose 1.25-7.5 µM
MGC-803 [9] = test: Inhibition of cell migration in human MGC-803 cells 0.2 to 0.8 uM up to 24 hrs by wound healing assay; format: functional, cell-based; conditions: dose 0.2-0.8 µM, time hrs <=24
CYP1A2 = molecular target: T2, CYP1A2 (Homo sapiens, UniProt P05177); test: Inhibition of CYP1A2 (unknown origin) at 10 uM using phenacetin as substrate relative to control; format: ADME; conditions: probe phenacetin
T2 sequence (P05177 whole entry): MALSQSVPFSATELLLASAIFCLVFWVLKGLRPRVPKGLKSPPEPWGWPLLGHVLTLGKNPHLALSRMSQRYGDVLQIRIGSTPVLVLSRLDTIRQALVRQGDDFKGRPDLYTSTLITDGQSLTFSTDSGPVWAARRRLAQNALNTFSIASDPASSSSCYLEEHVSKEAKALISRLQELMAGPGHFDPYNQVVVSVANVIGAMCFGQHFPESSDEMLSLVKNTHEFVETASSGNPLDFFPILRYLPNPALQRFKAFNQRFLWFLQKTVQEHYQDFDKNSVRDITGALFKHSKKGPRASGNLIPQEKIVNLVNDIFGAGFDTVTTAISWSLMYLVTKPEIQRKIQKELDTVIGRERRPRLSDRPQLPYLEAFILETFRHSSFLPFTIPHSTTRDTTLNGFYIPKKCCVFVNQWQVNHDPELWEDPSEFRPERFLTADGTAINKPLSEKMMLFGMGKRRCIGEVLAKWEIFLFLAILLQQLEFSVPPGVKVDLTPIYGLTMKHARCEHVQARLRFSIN

CYP2C19 = CYP2C19 (Homo sapiens, UniProt P33261); test: Inhibition of CYP2C19 (unknown origin) at 10 uM using S-mephenytoin as substrate relative to control; format: ADME; conditions: probe S-mephenytoin
CYP3A4 = CYP3A4 (Homo sapiens, UniProt P08684); test: Inhibition of CYP3A4 (unknown origin) at 10 uM using testosterone as substrate relative to control; format: ADME; conditions: probe testosterone
CYP3A4, sequence (P08684 whole entry): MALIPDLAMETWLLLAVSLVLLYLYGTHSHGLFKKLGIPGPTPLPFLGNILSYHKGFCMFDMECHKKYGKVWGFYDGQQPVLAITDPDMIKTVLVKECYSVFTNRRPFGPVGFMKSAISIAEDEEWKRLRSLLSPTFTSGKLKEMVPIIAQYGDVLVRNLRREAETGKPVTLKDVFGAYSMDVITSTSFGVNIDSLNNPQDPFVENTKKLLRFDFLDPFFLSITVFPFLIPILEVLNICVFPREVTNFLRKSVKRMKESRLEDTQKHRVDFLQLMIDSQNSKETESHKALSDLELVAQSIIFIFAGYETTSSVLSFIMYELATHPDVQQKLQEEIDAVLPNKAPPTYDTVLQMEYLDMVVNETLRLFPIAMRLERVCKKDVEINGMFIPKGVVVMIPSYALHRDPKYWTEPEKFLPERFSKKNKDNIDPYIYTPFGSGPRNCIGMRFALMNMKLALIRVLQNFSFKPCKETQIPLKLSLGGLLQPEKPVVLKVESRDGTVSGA

CYP2C9, sequence (P11712 whole entry): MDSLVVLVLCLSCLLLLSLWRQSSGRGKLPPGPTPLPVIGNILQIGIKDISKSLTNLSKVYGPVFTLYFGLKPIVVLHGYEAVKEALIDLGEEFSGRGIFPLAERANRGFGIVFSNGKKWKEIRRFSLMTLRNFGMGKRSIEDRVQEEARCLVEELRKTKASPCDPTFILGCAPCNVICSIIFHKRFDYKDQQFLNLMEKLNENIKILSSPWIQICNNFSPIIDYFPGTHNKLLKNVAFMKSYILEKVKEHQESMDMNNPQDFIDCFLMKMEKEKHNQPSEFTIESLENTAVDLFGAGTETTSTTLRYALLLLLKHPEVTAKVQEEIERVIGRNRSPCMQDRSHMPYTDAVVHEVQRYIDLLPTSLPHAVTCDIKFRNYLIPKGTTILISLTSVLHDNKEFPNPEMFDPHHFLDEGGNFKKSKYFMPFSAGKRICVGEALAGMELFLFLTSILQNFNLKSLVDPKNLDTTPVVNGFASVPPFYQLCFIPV
CYP2D6, sequence (P10635 whole entry): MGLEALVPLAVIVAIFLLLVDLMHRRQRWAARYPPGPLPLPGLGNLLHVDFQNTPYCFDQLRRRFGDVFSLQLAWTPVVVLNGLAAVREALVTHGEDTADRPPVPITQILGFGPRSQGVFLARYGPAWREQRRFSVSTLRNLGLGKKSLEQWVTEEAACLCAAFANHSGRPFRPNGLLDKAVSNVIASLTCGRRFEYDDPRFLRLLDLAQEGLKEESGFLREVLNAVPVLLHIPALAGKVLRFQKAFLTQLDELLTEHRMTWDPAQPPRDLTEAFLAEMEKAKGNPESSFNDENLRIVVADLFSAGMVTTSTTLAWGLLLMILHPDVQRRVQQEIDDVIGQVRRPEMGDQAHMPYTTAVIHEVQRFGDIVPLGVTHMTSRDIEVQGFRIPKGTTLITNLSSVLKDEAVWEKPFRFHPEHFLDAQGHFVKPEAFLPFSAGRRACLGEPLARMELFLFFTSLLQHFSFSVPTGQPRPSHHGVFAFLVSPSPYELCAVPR
CYP2C19, sequence (P33261 whole entry): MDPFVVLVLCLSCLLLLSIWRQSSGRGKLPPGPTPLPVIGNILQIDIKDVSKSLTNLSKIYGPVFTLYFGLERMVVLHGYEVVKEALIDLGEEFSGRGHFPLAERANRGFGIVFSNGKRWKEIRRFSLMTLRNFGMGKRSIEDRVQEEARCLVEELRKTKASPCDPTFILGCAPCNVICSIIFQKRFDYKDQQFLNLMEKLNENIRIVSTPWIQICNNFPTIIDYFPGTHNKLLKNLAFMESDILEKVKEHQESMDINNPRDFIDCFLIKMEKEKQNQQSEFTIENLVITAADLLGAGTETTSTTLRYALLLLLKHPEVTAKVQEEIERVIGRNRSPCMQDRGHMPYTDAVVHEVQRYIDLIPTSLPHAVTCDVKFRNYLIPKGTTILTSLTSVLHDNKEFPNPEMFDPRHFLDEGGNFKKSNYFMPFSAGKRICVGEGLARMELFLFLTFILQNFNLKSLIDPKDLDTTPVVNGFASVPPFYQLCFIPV
Histone deacetylase 5, sequence (Q9UQL6 whole entry): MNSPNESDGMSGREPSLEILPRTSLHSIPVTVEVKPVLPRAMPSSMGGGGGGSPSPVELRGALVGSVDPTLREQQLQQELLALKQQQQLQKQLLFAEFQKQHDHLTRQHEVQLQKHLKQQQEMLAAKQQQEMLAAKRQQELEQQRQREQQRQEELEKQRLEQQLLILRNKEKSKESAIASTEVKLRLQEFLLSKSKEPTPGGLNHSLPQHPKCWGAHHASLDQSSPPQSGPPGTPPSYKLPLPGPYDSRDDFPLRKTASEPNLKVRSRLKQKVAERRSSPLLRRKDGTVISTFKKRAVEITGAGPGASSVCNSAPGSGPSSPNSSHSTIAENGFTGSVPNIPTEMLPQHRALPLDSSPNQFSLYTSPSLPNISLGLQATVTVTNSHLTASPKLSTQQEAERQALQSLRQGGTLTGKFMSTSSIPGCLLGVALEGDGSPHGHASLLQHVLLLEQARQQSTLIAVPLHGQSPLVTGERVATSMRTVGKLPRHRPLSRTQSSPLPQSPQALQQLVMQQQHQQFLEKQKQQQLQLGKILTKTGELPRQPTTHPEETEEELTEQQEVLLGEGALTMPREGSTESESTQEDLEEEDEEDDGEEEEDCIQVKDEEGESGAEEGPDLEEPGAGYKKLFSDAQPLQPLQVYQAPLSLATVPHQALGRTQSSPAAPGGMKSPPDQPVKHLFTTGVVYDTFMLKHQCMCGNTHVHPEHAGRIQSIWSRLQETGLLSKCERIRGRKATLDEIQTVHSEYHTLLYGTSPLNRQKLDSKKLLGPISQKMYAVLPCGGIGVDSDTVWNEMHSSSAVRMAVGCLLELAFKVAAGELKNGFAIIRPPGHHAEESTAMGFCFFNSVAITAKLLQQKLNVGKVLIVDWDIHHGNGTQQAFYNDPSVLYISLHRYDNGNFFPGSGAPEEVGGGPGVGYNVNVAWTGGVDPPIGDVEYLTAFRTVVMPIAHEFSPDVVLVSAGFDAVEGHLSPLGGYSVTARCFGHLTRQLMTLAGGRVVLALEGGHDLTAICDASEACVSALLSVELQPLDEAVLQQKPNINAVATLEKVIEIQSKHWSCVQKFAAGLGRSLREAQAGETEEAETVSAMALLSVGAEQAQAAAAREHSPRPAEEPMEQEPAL
Histone deacetylase 1, sequence (Q13547 whole entry): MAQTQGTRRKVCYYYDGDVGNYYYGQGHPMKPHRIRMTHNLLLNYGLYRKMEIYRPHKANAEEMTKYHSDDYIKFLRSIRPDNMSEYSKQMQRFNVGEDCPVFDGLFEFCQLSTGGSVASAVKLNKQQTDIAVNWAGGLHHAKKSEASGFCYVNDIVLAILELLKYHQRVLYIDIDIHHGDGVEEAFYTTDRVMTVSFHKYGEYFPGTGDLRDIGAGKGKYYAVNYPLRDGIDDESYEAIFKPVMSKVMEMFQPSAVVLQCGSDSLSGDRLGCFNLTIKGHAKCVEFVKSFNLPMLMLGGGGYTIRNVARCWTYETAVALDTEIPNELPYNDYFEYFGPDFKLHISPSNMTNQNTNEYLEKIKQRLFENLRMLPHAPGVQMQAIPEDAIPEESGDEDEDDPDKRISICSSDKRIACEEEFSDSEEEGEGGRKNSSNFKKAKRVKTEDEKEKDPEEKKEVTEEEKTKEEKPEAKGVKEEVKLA
Histone deacetylase 11, sequence (Q96DB2 whole entry): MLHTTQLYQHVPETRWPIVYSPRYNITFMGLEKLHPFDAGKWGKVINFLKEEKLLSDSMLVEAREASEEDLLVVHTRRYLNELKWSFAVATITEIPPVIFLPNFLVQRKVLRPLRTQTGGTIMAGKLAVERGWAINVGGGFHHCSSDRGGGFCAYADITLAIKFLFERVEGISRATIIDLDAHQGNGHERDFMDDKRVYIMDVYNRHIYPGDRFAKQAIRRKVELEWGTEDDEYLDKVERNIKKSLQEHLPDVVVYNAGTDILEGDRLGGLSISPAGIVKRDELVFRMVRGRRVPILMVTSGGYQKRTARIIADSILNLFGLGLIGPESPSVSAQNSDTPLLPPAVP

| Structure (SMILES) | inhibition at 10 µM (CYP2D6) | microsomal CLint at 1 µM [1] | Activity (MGC-803 [2]) | IC50 (Histone deacetylase 11) | half-life at 1 µM [3] | Activity (MGC-803 [4]) | microsomal CLint at 1 µM [5] | IC50 [6] | IC50 (Histone deacetylase 5) | IC50 (MGC-803 [7]) | IC50 (Histone deacetylase 1) | inhibition at 10 µM (CYP2C9) | IC50 (HCT-116) | Activity (MGC-803 [8]) | inhibition (MGC-803 [9]) | inhibition at 10 µM (CYP1A2) | inhibition at 10 µM (CYP2C19) | inhibition at 10 µM (CYP3A4) |
| --- | --- | --- | --- | --- | --- | --- | --- | --- | --- | --- | --- | --- | --- | --- | --- | --- | --- | --- |
| O=C(NO)c1ccc(/C=C/c2ccnc(-c3ccccc3O)c2)cc1 | 15% | 505 µL/min/mg | 33.2% | > 10000 nM | 6.9 min | Dose-Dependent Effect | 105 µL/min/mg | 47 nM | > 10000 nM | 1420 nM | 220 nM | 13.1% | 1450 nM | Dose-Dependent Effect | Dose-Dependent Effect | 48.4% | 18.7% | 87.9% |
| Cc1ccc(-c2cc(/C=C/c3ccc(C(=O)NO)cc3)ccn2)c(F)c1 | 5.8% | 202 µL/min/mg | 77.9% | 4930 nM | 17.2 min | Dose-Dependent Effect | 67.4 µL/min/mg | 15 nM | > 10000 nM | 770 nM | 370 nM | 11.7% | 800 nM | Dose-Dependent Effect | Dose-Dependent Effect | 0.95% | 22.8% | 47.6% |
